Where two headings read alike, the source gives them in different places.
Columns and labels:
[1] = Balb/C mice, 20 mg/kg PO; dose-normalized
Experimental: In Vivo PK Studies in Mice.
The solution was filtered using a 0.45 m syringe filter before dosing. Two male Balb/c mice were administered 1 intravenously via the lateral tail
vein at 5 mg/kg with a dose volume of 2.0 mL/kg. 1 was also formulated in a suspension of 0.5%
methylcellulose with 0.5% Tween 80 (0.5% MC/0.5% Tw80) in water at 2.5 mg/mL. A group of mice
(n=3) were administered 1 orally via gavage at 20 mg/kg with a dose volume of 8.0 mL/kg.
The mouse blood samples were centrifuged to separate plasma and the plasma samples were frozen at -
In Vivo PK Studies in Rats.
Two male Wistar rats were administered
1 intravenously via the lateral tail vein at 3 mg/kg with a dose volume of 1.0 mL/kg. 1 was also formulated
in a suspension of 0.5% methylcellulose with 0.5% Tween 80 (0.5% MC/0.5% Tw80) in water at 2.0
mg/mL. The second group of rats (n=3) were administered 1 orally via gavage at 10 mg/kg in suspension
with a dose volume of 5.0 mL/kg. Six blood samples of 100 μL each were collected serially from each
animal via the saphenous vein up to 24 hours after dosing. The rat blood samples were centrifuged to
separate plasma and the plasma samples were frozen at -20°C until analysis.
In Vivo PK Studies in Dogs.
The solution was filtered using a 0.45 m syringe filter before dosing. Three male Beagle dogs were administered 1 intravenously via saphenous
vein at 0.3 mg/kg with a dose volume of 0.1 mL/kg. 1 was also formulated in a suspension of 0.5%
methylcellulose with 0.5% Tween 80 (0.5%MC/0.5% Tween 80) in water at 1.0 mg/mL. The second
group of male dogs (n=2) were administered 1- orally via gavage at 1.0 mg/kg with a dose volume of 1.0
mL/kg. Seven blood samples of 250 µL each were collected serially from each animal via the jugular vein
The dog blood samples were centrifuged to separate plasma and the plasma
samples were frozen at -20 °C until analysis.

hr M2 ag = target: T1, hr M2 ag (Homo sapiens, UniProt P08172); experiment: receptor profile (Table S4); assay type: biochemical
T1 sequence (P08172 1-466): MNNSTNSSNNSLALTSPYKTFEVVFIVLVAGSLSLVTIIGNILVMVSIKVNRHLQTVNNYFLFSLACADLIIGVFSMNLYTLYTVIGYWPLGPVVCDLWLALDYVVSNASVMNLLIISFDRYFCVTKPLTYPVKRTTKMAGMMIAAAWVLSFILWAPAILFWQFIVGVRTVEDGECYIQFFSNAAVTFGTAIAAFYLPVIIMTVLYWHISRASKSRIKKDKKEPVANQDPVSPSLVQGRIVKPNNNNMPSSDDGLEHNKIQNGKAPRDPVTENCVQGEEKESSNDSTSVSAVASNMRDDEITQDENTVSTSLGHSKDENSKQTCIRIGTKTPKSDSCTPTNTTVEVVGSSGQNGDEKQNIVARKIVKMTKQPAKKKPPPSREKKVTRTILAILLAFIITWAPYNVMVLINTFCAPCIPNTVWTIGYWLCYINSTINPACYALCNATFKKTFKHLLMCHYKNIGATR

[2] = male Sprague–Dawley rat, 10 mg/kg PO; dose-normalized
hr 5-HT1A ag = target: T2, hr 5-HT1A ag (Homo sapiens, UniProt P08908); experiment: receptor profile (Table S4); assay type: biochemical
T2 sequence (P08908 1-422): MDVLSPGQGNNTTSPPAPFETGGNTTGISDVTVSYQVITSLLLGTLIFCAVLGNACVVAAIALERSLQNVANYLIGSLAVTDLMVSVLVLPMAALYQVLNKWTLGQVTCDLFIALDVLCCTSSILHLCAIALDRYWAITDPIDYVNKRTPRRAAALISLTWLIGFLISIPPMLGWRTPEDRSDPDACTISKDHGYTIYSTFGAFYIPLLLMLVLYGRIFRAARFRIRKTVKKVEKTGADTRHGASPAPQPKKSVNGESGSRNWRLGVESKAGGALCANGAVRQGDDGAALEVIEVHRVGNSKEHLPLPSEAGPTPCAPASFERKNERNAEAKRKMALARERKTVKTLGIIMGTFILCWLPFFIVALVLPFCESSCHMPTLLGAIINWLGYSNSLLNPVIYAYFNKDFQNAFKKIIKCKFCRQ

in vitro AMES = assay type: cell-based
hr GHS = hr GHS (Homo sapiens, UniProt Q92847); experiment: receptor profile (Table S4); assay type: binding
hr GHS, sequence (Q92847 whole entry): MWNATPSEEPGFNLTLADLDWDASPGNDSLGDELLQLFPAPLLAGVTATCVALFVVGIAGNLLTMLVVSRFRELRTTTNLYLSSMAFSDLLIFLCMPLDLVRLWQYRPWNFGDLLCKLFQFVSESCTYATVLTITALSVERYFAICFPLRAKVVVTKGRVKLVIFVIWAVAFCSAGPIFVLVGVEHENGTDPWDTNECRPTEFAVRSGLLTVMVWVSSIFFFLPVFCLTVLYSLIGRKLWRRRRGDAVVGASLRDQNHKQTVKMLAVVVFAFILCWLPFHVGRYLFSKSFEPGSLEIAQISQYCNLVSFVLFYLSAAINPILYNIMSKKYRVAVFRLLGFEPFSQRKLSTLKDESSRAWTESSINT

hr PPARg antag = target: T3, hr PPARg antag (Homo sapiens, UniProt P37231); experiment: receptor profile (Table S4); assay type: biochemical
T3 sequence (P37231 1-505): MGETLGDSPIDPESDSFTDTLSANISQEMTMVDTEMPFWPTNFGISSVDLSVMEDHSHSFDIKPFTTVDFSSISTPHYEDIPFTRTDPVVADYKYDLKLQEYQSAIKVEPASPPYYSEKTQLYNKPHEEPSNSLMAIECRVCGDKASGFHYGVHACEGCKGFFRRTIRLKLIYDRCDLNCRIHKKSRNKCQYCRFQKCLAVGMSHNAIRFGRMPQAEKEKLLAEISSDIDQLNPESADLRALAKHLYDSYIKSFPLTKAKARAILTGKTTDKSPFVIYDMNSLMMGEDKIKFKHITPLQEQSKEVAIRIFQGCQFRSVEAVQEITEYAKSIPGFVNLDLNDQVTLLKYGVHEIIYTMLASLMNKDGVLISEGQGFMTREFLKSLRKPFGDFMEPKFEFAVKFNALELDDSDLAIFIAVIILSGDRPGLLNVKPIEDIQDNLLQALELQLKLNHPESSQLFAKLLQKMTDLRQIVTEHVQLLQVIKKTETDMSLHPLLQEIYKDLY

hr EGFR = hr EGFR (Homo sapiens, UniProt P00533); experiment: receptor profile (Table S4); assay type: biochemical
hr EGFR, sequence (P00533 25-1210): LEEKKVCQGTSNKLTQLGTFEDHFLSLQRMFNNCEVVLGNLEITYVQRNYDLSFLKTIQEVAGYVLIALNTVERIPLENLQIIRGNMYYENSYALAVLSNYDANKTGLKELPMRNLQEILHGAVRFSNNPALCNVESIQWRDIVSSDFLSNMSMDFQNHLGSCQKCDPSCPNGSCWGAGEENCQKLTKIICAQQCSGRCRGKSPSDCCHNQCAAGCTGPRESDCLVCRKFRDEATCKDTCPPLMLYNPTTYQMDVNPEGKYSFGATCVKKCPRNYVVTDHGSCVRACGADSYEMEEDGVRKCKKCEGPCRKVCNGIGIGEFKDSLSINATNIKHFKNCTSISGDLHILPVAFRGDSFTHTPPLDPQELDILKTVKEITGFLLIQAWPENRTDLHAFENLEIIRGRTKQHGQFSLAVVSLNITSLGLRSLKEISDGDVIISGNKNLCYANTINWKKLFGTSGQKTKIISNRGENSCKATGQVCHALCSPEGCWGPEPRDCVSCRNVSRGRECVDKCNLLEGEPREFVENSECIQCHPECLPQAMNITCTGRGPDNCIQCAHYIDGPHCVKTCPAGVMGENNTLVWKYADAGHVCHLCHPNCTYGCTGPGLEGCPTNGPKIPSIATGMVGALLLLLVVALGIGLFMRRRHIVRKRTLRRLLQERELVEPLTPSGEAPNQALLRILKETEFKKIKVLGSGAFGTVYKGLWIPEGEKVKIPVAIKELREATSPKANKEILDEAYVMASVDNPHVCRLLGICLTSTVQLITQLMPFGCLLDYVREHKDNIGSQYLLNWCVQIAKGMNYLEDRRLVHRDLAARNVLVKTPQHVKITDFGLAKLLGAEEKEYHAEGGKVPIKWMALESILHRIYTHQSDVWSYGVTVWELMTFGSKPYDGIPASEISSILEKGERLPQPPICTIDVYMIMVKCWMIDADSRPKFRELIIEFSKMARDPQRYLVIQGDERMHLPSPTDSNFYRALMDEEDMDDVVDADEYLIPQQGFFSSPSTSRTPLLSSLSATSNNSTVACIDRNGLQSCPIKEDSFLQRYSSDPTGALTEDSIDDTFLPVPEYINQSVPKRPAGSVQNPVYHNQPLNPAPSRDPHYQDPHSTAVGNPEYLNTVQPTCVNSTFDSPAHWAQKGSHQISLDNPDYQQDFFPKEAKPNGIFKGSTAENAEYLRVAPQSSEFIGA

hr AT1 = target: T4, hr AT1 (Homo sapiens, UniProt P30556); experiment: receptor profile (Table S4); assay type: binding
T4 sequence (P30556 1-359): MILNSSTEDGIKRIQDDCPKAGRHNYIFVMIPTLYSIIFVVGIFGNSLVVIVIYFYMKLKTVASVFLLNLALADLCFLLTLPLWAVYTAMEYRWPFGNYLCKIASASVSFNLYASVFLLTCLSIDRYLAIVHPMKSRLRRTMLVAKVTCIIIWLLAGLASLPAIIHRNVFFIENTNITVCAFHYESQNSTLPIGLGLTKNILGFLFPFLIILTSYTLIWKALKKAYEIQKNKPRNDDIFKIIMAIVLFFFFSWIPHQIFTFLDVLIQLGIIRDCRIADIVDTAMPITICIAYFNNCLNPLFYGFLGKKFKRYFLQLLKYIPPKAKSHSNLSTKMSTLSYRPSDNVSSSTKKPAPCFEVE

BSEP = BSEP (Homo sapiens, UniProt O95342); experiment: receptor profile (Table S4), second BSEP line; conditions: human
BSEP, sequence (O95342 whole entry): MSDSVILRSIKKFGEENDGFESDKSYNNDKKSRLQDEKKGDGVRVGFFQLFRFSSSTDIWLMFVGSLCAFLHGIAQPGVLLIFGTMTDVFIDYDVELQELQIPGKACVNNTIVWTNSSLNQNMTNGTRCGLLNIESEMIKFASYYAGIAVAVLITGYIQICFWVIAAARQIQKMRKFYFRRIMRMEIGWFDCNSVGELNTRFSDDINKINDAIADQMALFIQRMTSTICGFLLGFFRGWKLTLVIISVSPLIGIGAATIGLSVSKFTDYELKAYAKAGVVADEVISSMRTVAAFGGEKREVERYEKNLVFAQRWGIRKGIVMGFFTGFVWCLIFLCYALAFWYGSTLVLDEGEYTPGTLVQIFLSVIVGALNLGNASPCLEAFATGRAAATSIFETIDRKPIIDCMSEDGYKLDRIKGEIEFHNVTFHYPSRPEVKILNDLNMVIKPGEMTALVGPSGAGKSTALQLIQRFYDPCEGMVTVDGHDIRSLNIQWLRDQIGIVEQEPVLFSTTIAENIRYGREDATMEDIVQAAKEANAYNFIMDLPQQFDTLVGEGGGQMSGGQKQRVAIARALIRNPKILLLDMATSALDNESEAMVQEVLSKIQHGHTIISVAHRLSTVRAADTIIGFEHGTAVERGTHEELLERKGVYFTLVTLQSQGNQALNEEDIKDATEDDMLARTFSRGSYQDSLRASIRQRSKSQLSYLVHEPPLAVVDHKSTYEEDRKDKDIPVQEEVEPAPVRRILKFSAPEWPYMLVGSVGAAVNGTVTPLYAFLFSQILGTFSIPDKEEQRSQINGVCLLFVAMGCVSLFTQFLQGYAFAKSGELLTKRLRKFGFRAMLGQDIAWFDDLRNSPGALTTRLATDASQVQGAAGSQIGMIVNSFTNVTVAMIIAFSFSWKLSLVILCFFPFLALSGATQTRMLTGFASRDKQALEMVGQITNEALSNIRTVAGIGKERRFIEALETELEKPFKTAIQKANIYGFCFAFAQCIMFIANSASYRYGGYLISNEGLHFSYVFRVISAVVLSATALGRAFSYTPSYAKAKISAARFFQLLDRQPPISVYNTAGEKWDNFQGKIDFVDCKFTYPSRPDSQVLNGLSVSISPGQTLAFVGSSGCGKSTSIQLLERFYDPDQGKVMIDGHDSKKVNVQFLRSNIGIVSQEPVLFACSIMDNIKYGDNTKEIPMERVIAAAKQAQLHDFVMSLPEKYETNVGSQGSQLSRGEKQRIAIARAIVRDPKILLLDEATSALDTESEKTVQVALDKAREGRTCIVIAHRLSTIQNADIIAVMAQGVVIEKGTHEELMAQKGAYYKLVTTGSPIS

hr BSEP = hr BSEP (Homo sapiens, UniProt O95342); experiment: receptor profile (Table S4), second BSEP line; conditions: hr BSEP, second line
hr BSEP, sequence (O95342 whole entry): as above

hr CB1 ag = hr CB1 ag (Homo sapiens, UniProt P21554); experiment: receptor profile (Table S4); assay type: biochemical
hr CB1 ag, sequence (P21554 whole entry): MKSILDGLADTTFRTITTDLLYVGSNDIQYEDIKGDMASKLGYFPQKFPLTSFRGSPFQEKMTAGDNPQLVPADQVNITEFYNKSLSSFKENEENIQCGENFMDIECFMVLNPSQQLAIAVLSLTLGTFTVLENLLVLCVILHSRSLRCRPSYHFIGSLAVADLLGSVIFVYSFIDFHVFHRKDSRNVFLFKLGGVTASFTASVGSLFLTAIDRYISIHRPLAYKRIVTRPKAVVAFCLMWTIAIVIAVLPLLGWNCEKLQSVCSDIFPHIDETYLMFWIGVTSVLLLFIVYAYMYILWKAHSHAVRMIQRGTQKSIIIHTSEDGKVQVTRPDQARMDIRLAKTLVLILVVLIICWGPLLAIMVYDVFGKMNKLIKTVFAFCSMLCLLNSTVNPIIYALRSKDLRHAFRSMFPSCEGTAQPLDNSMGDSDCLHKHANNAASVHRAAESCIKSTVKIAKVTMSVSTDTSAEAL

CYP2D15 = CYP2D15 (Canis lupus familiaris, UniProt Q29473); conditions: panel of dog recombinant CYP enzymes; 1 µM, 30 min
CYP2D15, sequence (Q29473 whole entry): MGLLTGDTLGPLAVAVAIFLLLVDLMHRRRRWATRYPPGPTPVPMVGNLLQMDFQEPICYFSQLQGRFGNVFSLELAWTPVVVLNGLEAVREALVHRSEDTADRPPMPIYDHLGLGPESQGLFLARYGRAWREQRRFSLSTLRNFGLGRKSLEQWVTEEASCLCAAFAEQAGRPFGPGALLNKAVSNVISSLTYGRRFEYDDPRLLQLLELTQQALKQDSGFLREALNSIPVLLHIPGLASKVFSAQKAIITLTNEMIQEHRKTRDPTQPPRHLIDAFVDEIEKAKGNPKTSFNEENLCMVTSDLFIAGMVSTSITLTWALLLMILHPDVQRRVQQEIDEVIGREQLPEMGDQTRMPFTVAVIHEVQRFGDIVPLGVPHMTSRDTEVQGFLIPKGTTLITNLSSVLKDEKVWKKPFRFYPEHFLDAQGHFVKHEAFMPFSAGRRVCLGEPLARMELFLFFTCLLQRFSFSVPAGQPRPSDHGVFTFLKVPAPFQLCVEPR

hr ERa antag = hr ERa antag (Homo sapiens, UniProt P03372); experiment: receptor profile (Table S4); assay type: biochemical
hr ERa antag, sequence (P03372 whole entry): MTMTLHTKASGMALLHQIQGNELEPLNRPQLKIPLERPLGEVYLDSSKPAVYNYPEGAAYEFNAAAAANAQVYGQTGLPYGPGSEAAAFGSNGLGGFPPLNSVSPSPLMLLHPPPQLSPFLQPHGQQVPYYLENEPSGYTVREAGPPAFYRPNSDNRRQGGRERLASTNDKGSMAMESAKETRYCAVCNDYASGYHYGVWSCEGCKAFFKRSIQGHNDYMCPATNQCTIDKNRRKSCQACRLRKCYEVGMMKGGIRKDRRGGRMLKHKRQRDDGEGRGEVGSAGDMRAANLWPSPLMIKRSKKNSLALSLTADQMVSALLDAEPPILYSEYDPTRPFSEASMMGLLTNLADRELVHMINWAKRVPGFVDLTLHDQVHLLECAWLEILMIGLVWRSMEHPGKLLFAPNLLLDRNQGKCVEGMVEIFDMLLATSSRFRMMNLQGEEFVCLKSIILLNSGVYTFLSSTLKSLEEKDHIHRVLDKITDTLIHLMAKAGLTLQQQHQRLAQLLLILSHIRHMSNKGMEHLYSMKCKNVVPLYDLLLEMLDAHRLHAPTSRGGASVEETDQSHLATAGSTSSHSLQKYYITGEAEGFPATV

[3] = dissolution study and supersaturation stability in FASSIF; assay type: physicochemical

In the case of `Cc1nc(C)c(C(=O)Nc2ccc(F)c(-c3nc4ncc(-c5ncccc5C)cn4n3)c2)o1` [compound 1, N-(4-Fluoro-3-(6-(3-methylpyridin-2-yl)-[1,2,4]triazolo[1,5-a]pyrimidin-2-yl)phenyl)-2,4-dimethyloxazole-5-carboxamide], the “DN AUC PO” value [1] is reported as 7.5 µM·h, the “DN Cmax PO” value [1] is reported as 800 nM and the EC50/IC50 (hr M2 ag; hr M2 ag) is reported as over 30 µM. The inhibition at 10 µM (hr M2 ag; read-out: % inh/act @ 10 µM) was 0%, the inhibition at 30 µM (hr M2 ag; read-out: % inh/act @ 30 µM) was 1% and the “DN AUC PO” value [2] was 12 µM·h. The “DN Cmax PO” value [2] was 1000 nM, the EC50/IC50 (hr 5-HT1A ag; hr 5-HT1A ag) was over 30 µM and the inhibition at 10 µM (hr 5-HT1A ag; read-out: % inh/act @ 10 µM) was 1%. The inhibition at 30 µM (hr 5-HT1A ag; read-out: % inh/act @ 30 µM) was 1%, the “AMES, risk of mutagenicity” value (in vitro AMES) was “did not indicate a risk” and the EC50/IC50 (hr GHS; hr GHS) was over 30 µM. The inhibition at 10 µM (hr GHS; read-out: % inh/act @ 10 µM) was 12%, the inhibition at 30 µM (hr GHS; read-out: % inh/act @ 30 µM) was 12% and the EC50/IC50 (hr PPARg antag; hr PPARg antag) was over 30 µM. For the same compound, the inhibition at 10 µM (hr PPARg antag; read-out: % inh/act @ 10 µM) was -5%, the inhibition at 30 µM (hr PPARg antag; read-out: % inh/act @ 30 µM) was 16% and the EC50/IC50 (hr EGFR; hr EGFR) was over 30 µM. The inhibition at 10 µM (hr EGFR; read-out: % inh/act @ 10 µM) was 16%, the inhibition at 30 µM (hr EGFR; read-out: % inh/act @ 30 µM) was 17% and the EC50/IC50 (hr AT1; hr AT1) was over 30 µM. The inhibition at 10 µM (hr AT1; read-out: % inh/act @ 10 µM) was 22%, the inhibition at 30 µM (hr AT1; read-out: % inh/act @ 30 µM) was 41% and the inhibition at 10 µM (BSEP) was 40%. It also gave an inhibition at 30 µM (BSEP) of 56%, an EC50/IC50 (hr BSEP) of 17 µM and an EC50/IC50 (hr CB1 ag; hr CB1 ag) of over 30 µM. The inhibition at 10 µM (hr CB1 ag; read-out: % inh/act @ 10 µM) was 0%, the inhibition at 30 µM (hr CB1 ag; read-out: % inh/act @ 30 µM) was 3% and the “metabolism by dog recombinant CYP enzymes” value (CYP2D15) was “metabolized to 8 predominantly by CYP2D15”. The EC50/IC50 (hr ERa antag; hr ERa antag) was over 30 µM, the inhibition at 10 µM (hr ERa antag; read-out: % inh/act @ 10 µM) was -8% and the inhibition at 30 µM (hr ERa antag; read-out: % inh/act @ 30 µM) was -4%. The “concentration in FASSIF (supersaturation)” value ([3]; fumarate cocrystal of 1, FASSIF, at 16 min) was 73000 nM and the dissolution rate ([3]; fumarate cocrystal of 1 vs free base of 2, Figure 1) was “significantly higher dissolution rate”.

From publication PMC7549094 (Journal of Medicinal Chemistry, 2020)
